Measurements from patent US9132086B2, “Compositions for and methods of controlling olfactory responses to odorants” (Auburn University, priority 2006, dated 2015).

Columns and labels:
[1] = test system: olfactory receptor neurons; assay: Whole-cell patch-clamp recording of single olfactory neurons; type: cell-based, rat; conditions: FIG. 7
Description: FIG. 6 illustrates electrophysiological recordings from a rat olfactory epithelium and a single olfactory neuron where the stimulus was a 0.5-s pulse of air or an odorant mixture. The odorant concentration was constant for all traces. […] Vapor of odorants were collected above the odorant solutions (in water) of concentrations shown. […] The stimulus was a 0.5 second pulse of odorant/zinc particle mixture. Downward direction indicates inward current.
FIG. 7 illustrates results from EGTA experiments and Zn^+2 ions experiments. […] It is widely known that EGTA binds multivalent metals. When Zn metal nanoparticles are bound by EGTA, the number of particles participating in olfactory signal transduction is reduced, and the odorant response is decreased. […] When the patch electrode is filled with a solution containing 500 pM EGTA, the odorant-evoked current changes markedly. Few minutes after beginning the perfusion, a progressive […] in the amplitude of the odorant triggered inward currents is noted.

[2] = test system: rat olfactory epithelium; assay: EOG recording of rat olfactory epithelium, odorant puffs; type: cell-based; conditions: FIG. 7 chart 720; external perfusion of ZnCl2 solutions, same range of concentrations as nanoparticles (10^−9-10^−15 M)
Description: The averaged activity of the receptor neuron to an odor can be measured by an electroolfactogram (EOG). In this process, fragments of olfactory epithelaia, either cultured or dissected from natural sources (e.g., mice and dogs), are placed in an EOG recording chamber with a buffer solution. The epithelial cilia are exposed. Electrodes are connected to the tissues through a patch-clamp amplifier to detect electrical activity of the olfactory epithelia. In general air puff or plums of an odorant mixture are applied over the olfactory epithelia through a small pipet or capillary, before and after being treated with the metal composition, described in detail below. The amplitude of the electrical signal to the amount of the odorant is plotted over time after the electrical signal is amplified and filtered.
FIG. 3C is a graph 370 showing amplitude plots 371, 373, 375 and 377 of Electroolfactogram recordings. In this case rat olfactory tissue was placed in an EOG recording chamber with a buffer solution and connected to electrodes through an amplifier. Air puffs or plumes of an odorant mixture are applied over the rat olfactory tissue and the electrical response was measured and the normalized peak amplitudes were plotted over time over time.
FIG. 5 illustrates EOG traces from rat olfactory epithelium. Responses were induced by air odorants and a mixture of odorants and zinc metal particles. […]

odorant response by olfactory receptor neurons [2]	SMILES	effect on odorant response measured by patch-clamp ([1]; 500 pM perfused inside olfactory neurons)	dose dependence of the effect on odorant response ([1]; perfused inside olfactory neurons)
–	O=C(O)CN(CCOCCOCCN(CC(=O)O)CC(=O)O)CC(=O)O [EGTA, ethylene glycol tetraacetic acid]	clearly inhibit odorant response	dose dependent
reduced	[Zn+2] [Zn^+2 ions, ZnCl2]	–	–
